Results as given in patent publication US9763445B2, “Safened herbicidal compositions comprising a pyridine carboxylic acid herbicide” (Dow AgroSciences, LLC, priority 2014, dated 2017).

What was measured:
[1] = test system: purple deadnettle (LAMPU); experiment: Postemergence greenhouse trial, % visual injury on purple deadnettle; assay type: in vivo, Lamium purpureum; conditions: LAMPU, CQC-m 0 g/ha
Protocol: Seeds of the desired test plant species were planted in Sun Gro MetroMix® 306 planting mixture, which typically has a pH of 6.0 to 6.8 and an organic matter content of about 30 percent, in plastic pots with a surface area of 103.2 square centimeters (cm^2). When required to ensure good germination and healthy plants, a fungicide treatment and/or other chemical or physical treatment was applied. The plants were grown for 7-36 days (d) in a greenhouse with an approximate 14-hour (h) photoperiod which was maintained at about 23° C. during the day and 22° C. during the night. Nutrients and water were added on a regular basis and supplemental lighting was provided with overhead metal halide 1000-Watt lamps as necessary. The plants were employed for testing when they reached the second or third true leaf stage.
Weighed amounts of technical material were dissolved in a volume of 97:3 volume per volume (v/v) acetone/dimethyl sulfoxide (DMSO) to stock solutions. […] The concentrated stock solutions were diluted with an aqueous mixture of 1.5% v/v of Agri-dex crop oil concentrate to provide the appropriate application rates. Compound requirements are based upon a 12 milliliter (mL) application volume at a rate of 187 liters per hectare (L/ha). Stocks solutions of the safeners were prepared following the same procedure. Spray solutions of the safeners and experimental compound mixtures were prepared by adding the stock solutions to the appropriate amount of dilution solution to form a 12 mL spray solution in two-way combinations. Formulated compounds were applied to the plant material with an overhead Mandel track sprayer equipped with 8002E nozzles calibrated to deliver 187 L/ha over an application area of 0.503 square meters (m^2) at a spray height of 18 inches (43 centimeters (cm)) above average plant canopy. Control plants were sprayed in the same manner with the solvent blank. All herbicide application (component a) rates are in g ae/ha and all safener (component b) rates are in g ai/ha.
The treated plants and control plants were placed in a greenhouse as described above and watered by sub-irrigation to prevent wash-off of the test compounds. After 20-22 d, the condition of the test plants as compared with that of the control plants was determined visually and scored on a scale of 0 to 100 percent where 0 corresponds to no injury and 100 corresponds to complete kill. […] Colby's equation was used to determine the herbicidal effects expected from the mixtures. […]

[2] = test system: spring wheat (TRZAS); experiment: Postemergence greenhouse trial, % visual injury on spring wheat; assay type: in vivo, Triticum aestivum; conditions: TRZAS, CQC-m 0 g/ha
Procedure, shortened: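 Postemergence greenhouse spray (187 L/ha, 1.5% v/v Agri-dex in water, acetone/DMSO stocks) on plants at second–third true leaf stage, ~23/22 °C, 14 h photoperiod; herbicides in g ae/ha, safener cloquintocet-mexyl in g ai/ha. Visual injury 0–100% versus solvent-blank controls after 20–22 d; Colby's equation gave expected mixture effects.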

[3] = test system: kochia (KCHSC); experiment: Postemergence greenhouse trial, % visual injury on kochia; assay type: in vivo, Kochia scoparia; conditions: KCHSC, CQC-m 0 g/ha
Procedure, shortened: (§1)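 Herbicide rates g ae/ha, safener (cloquintocet-mexyl) rates g ai/ha; spray carrier 1.5% v/v crop oil concentrate, 187 L/ha, 2nd–3rd leaf stage. Rating: visual % injury at 20-22 d.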

[4] = test system: winter rape (BRSNW); experiment: Postemergence greenhouse trial, % visual injury on winter rape; assay type: in vivo, Brassica napus; conditions: BRSNW, CQC-m 0 g/ha
Procedure, shortened: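 Plants at second or third true leaf stage, greenhouse-grown (14 h photoperiod, ~23/22° C.), sprayed postemergence with compounds alone or with safener cloquintocet-mexyl in 1.5% v/v Agri-dex crop oil at 187 L/ha. Visual injury scored 0–100% versus solvent-blank controls after 20-22 d; expected mixture effects by Colby's equation.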

[5] = test system: common poppy (PAPRH); experiment: Postemergence greenhouse trial, % visual injury on common poppy; assay type: in vivo, Papaver rhoeas; conditions: PAPRH, CQC-m 0 g/ha
Procedure, shortened: as §1

## Nc1cc(-c2ccc3cc[nH]c3c2F)nc(C(=O)O)c1Cl [compound 15]
[1]; compound 4.375 g/ha
  % visual injury, Ob: 93%
[1]; compound 8.75 g/ha
  % visual injury, Ob: 95%
[1]; compound 17.5 g/ha
  % visual injury, Ob: 93%
[1]; compound 35 g/ha
  % visual injury, Ob: 93%
[1]; compound 70 g/ha
  % visual injury, Ob: 95%
[2]; compound 4.375 g/ha
  % visual injury, Ob: 0%
[2]; compound 8.75 g/ha
  % visual injury, Ob: 10%
[2]; compound 17.5 g/ha
  % visual injury, Ob: 15%
[2]; compound 35 g/ha
  % visual injury, Ob: 20%
[2]; compound 70 g/ha
  % visual injury, Ob: 25%
[3]; compound 4.375 g/ha
  % visual injury, Ob: 10%
[3]; compound 8.75 g/ha
  % visual injury, Ob: 10%
[3]; compound 17.5 g/ha
  % visual injury, Ob: 50%
[3]; compound 35 g/ha
  % visual injury, Ob: 60%
[3]; compound 70 g/ha
  % visual injury, Ob: 75%
[4]; compound 4.375 g/ha
  % visual injury, Ob: 40%
[4]; compound 8.75 g/ha
  % visual injury, Ob: 40%
[4]; compound 17.5 g/ha
  % visual injury, Ob: 50%
[4]; compound 35 g/ha
  % visual injury, Ob: 70%
[4]; compound 70 g/ha
  % visual injury, Ob: 60%
[5]; compound 4.375 g/ha
  % visual injury, Ob: 90%
[5]; compound 8.75 g/ha
  % visual injury, Ob: 100%
[5]; compound 17.5 g/ha
  % visual injury, Ob: 100%
[5]; compound 35 g/ha
  % visual injury, Ob: 100%
